From patent publication US20250304587A1, “WEE1 INHIBITOR, PREPARATION THEREFOR AND USE THEREOF” (JIANGSU TASLY DIYI PHARMACEUTICAL CO., LTD., priority 2022, published 2025)
pIC50: −log10 of the molar value.

What was measured:
[1] = test system: HK2 cells; assay: Cell Titer-Glo anti-proliferation, normal cells HK2; type: cell-based
Protocol: (§1) Compound solutions of different concentration gradients were prepared. […] The cell growth group without compound was used as a positive control (maximum signal control) and the medium was used as a negative control (minimum signal control), while ensuring that the final level of DMSO in each reaction well was 0.2%. After removing the medium from the 384-well plate, 25 μl of the configured compound at different concentrations was transferred into the well plate and the compound and cells were incubated in the cell incubator at 37° C. with 5% CO2 for 3 days.
(§2) The 384-well plates were removed from the cell incubator and allowed to equilibrate for 1 h to room temperature. 25 μl of Cell Titer-Glo assay was added to each well, lysed on a shaker for 2 min and then read out (Luminescence) using a BMG PHERAStar after 10 min incubation. Calculate the inhibition rate from the luminescence signal.
(§3) to calculate the rate of inhibition of the cells by different concentrations of the compounds. The IC50 of the compound on cell activity inhibition was calculated by fitting a log(inhibitor) vs. response-Variable slope model to GraphPad Prism 6. The fitted equation was: Y=Bottom+(Top-Bottom)/(1+10^((Log IC50−X)*HillSlope)), where Y represents the rate of inhibition and X represents the concentration of the known compound after Log.
(§4) B. Evaluation of the Anti-Proliferative Effect of Compounds by the Cell Titer-Glo Method on Normal Cells HUVEC and HK2.
(§5) The test method is the same as the anti-proliferative activity evaluation of tumor cells.

[2] = test system: OVCAR-3 cells; assay: Cell Titer-Glo anti-proliferation, OVCAR-3 cells; type: cell-based; settings: 3 days, read-out: Anti-proliferative activity OVCAR-3 (IC50 class)
Summary of the method: (§6)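 Each line was exposed to graded compound concentrations for 3 days at 37 °C, 5% CO2, with final DMSO at 0.2%. Viability was measured by Cell Titer-Glo luminescence, with untreated cells as the maximum and medium as the minimum signal. IC50 came from a variable-slope log(inhibitor)-response fit.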

[3] = test system: plasma protein; assay: Plasma protein binding (equilibrium dialysis), mouse; settings: mouse plasma, 1 μM, 5 h dialysis
Protocol: Sample preparation: The compound was dissolved in DMSO to a stock solution of 10 mM, then the compound was diluted with PBS to a secondary stock solution of 0.02 mM, and then the above 0.02 mM was diluted to 1 μM using blank plasma, which was the sample to be incubated.
Dialysis set-up preparation: 400 μL of blank PBS was first added to the white wells of the equilibrated dialysis plate and 200 μL of the configured plasma sample was added to the red wells, and the dialysis plate was sealed with a sealing film.
Recovery plate preparation: Two 96-well deep-well plates, labelled T0 and T5, were prepared and all plasma samples were added at n=2. 300 μL of acetonitrile (Verapamil-HCl, 4 ng/mL) was added directly to the TO plate, followed by 50 μL of blank PBS mix well for 5 min and left to stand in a 4° C. refrigerator until the end of the incubation.
Experimental Operation: The dialysis device and the T5 plate were incubated together for 5 h in a microplate thermostatic shaker (37° C., using 300 rpm or minimum speed). At the end of the incubation, 300 μL of acetonitrile (Verapamil-HCl, 4 ng/mL) was added and 50 μL of PBS solution was added. At the end of the dialysis incubation, a new 96-well deep well plate was taken. Add 50 μL of plasma well sample to the corresponding position of the 96-well plate, 300 μL of acetonitrile and 50 μL of blank PBS; take 50 μL of buffer well sample to the corresponding position of the 96-well plate, then add 300 μL of acetonitrile and 50 μL of blank plasma. Add 300 μL of acetonitrile (Verapamil-HCl, 4 ng/mL) to the plasma-containing wells of the T5 plate, and then 50 μL of PBS solution was added. Shake for 5 min to fully precipitate the proteins and centrifuge at 20,000 g for 10 min at 4° C. Add 200 μL of supernatant to 200 μL of pure water, mix well and perform LC-MS/MS analysis.
• Plasma protein binding rate=[(Rpe−Rb)/Rpe]×100% • Recovery=[(Rpe+Rb)/R5 h]×100% • Stability=(R5/R0)×100%
• Rpe=ratio of plasma-side testing sample peak area to internal standard • Rb=ratio of buffer side testing sample peak area to internal standard • R5=ratio of incubator stability sample peak area to internal standard • R0=ratio of refrigerator stability sample peak area to internal standard

[4] = test system: HT-29 cells; assay: Cell Titer-Glo anti-proliferation, HT-29 cells; type: cell-based, human; settings: 3 days, read-out: Anti-proliferative activity HT-29 (IC50 class)
Summary of the method: as §6

[5] = test system: BxPC3 cells; assay: Cell Titer-Glo anti-proliferation, BxPC3 cells; type: cell-based, human; settings: 3 days, read-out: Anti-proliferative activity BxPC3 (IC50 class)
Summary of the method: as §6

[6] = test system: HUVEC cells; assay: Cell Titer-Glo anti-proliferation, normal cells HUVEC; type: cell-based
Protocol: as §1, §2, §3, §4, §5

[7] = molecular target: hERG potassium channel (Homo sapiens (Human), UniProt Q12809); assay: hERG potassium channel inhibition, patch clamp in CHO hERG cells
Protocol: The cell line used for the patch clamp assay was a 10th generation CHO cell overexpressing hERG potassium channel cDNA. CHO hERG cells were cultured in Petri dishes or flasks at 37° C. in a 5% CO2 incubator. Cells were dropped onto circular slides 24-48 hours prior to electrophysiological experiments and cultured in cell culture medium and used for experiments after the cells had been adhered.
Cell culture medium (purchased from Invitrogen) Composition: • Ham's F12 medium • 10% (v/v) heat inactivated FBS • 100 μg/ml Hygromycin B (thaumatin) • 100 μg/ml Geneticin (Genomycin, G418)
Compound powders are dissolved in the extracellular solution and are subjected to a routine 5 to 10 minute sonication and shaking to ensure complete dissolution of the compound.
The final concentrations of compounds used for electrophysiological assays were 5, 20 μM and the final concentration of DMSO was 0.1%.
Cell membrane currents were recorded using a HEKA EPC-10 USB patch-clamp amplifier (HEKA Elektronik, Germany). • 1) A coverslip with a large number of uniformly growing individual CHO hERG cells on its surface was taken. Place in a continuous recording cell on an inverted microscope, perfused with extracellular fluid (approximately 1 ml per minute) and recorded continuously, waiting for the current to stabilize. • 2) Record HERG channel currents for individual cells using standard whole cell recording mode. The membrane voltage is first clamped at −80 mV and the cell is given a +20 mV stimulus for 5 s to activate the hERG potassium channel, then repolarized to −50 mV for 5 s to generate an outward tail current, which is continuously perfused until the current is stable, at which point the peak tail current is the control current value. • 3) The extracellular solution containing the drug to be tested was then perfused and recorded until the inhibitory effect of the drug on the hERG current reached a steady state, at which point the peak tail current was the post-drug current value. • 4) The cells are again perfused with the extracellular solution until the hERG current returns to or approaches the level prior to the addition of the drug, then the perfusion can be continued to test other concentrations or drugs. One or more compound or drug concentrations may be tested on each cell. • 5) Cisapride (C4740-10 mg, Sigma) is used as a positive control in the experiment to ensure that the cells used respond properly.

[8] = test system: Caco-2 cells; assay: Membrane permeability in Caco-2 model; type: in vitro ADME; settings: for Efflux Ration: Caco2; for Papp A to B / Papp B to A: Caco2, 10 μM, 90 min
Protocol: Caco-2 cells were purchased from the American Model Tissue Cell Collection (Rockville, MD). The cell culture medium was modified Eagle's medium (MEM) containing 10% inactivated fetal bovine serum and 1% non-essential amino acids. […] The cells were incubated for 21-28 days after inoculation for transport experiments and the apparent permeability (Papp) of Lucifer Yellow was used to characterize and verify the compactness of the cell monolayer. […] After the incubation, dilute the samples on the apical side and basolateral side, and the concentrations of compounds on the apical and basolateral sides were detected by LC-MS/MS, and the concentrations of the compounds were quantified by standard curve.

[9] = molecular target: Wee1 protein (Homo sapiens (Human), UniProt P30291); assay: TR-FRET binding of compound to Wee1 protein and Tracer 178; settings: Tracer 178, read-out: IC50, inhibitory activity against Wee1 kinase
Protocol: First, solutions of the compounds in different concentration gradients were prepared. The compounds were dissolved in DMSO and the compounds were diluted 4 folds with a total of 10 dose points and 2 parallel replicates for each concentration.
The IC50 for inhibition of enzyme activity by the compounds was then calculated using GraphPad Prism 6 and fitted with a log (inhibitor) vs. response-Variable slope mode. The fitting equation was: Y=Bottom+(Top−Bottom)/(1+10^((Log IC50−X)*HillSlope)), where Y represents the percentage of residual enzyme activity known and X represents the known concentration of compound after the logarithm.

Sequence of hERG potassium channel (Q12809 whole entry): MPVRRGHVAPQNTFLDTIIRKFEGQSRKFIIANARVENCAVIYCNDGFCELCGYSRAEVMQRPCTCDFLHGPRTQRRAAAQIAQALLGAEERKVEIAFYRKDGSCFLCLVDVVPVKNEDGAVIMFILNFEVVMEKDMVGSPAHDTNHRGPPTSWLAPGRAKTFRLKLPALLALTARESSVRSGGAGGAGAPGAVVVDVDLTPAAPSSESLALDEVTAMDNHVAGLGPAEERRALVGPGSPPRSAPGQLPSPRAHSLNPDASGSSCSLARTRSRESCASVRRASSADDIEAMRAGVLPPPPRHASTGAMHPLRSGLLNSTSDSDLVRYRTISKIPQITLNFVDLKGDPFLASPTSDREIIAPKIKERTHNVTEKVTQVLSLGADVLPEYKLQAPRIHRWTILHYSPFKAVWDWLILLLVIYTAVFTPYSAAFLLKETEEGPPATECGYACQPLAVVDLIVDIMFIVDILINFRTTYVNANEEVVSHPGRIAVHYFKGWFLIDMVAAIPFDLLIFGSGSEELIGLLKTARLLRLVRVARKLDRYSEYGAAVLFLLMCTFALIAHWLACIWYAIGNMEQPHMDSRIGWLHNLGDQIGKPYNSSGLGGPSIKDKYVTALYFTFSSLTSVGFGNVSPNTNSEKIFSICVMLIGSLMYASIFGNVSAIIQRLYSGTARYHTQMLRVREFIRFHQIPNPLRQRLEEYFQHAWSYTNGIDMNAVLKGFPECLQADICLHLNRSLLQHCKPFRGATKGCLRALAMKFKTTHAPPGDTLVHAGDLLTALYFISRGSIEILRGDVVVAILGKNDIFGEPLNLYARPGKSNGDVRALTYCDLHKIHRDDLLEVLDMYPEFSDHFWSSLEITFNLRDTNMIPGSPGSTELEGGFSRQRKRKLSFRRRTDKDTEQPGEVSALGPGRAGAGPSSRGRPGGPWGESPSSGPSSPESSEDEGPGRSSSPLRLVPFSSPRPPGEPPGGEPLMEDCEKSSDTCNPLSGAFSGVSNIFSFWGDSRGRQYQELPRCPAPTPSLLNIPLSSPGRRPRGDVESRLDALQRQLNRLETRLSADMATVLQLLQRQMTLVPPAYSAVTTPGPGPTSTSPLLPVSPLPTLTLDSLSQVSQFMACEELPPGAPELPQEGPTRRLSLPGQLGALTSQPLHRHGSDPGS
Sequence of Wee1 protein (P30291 whole entry): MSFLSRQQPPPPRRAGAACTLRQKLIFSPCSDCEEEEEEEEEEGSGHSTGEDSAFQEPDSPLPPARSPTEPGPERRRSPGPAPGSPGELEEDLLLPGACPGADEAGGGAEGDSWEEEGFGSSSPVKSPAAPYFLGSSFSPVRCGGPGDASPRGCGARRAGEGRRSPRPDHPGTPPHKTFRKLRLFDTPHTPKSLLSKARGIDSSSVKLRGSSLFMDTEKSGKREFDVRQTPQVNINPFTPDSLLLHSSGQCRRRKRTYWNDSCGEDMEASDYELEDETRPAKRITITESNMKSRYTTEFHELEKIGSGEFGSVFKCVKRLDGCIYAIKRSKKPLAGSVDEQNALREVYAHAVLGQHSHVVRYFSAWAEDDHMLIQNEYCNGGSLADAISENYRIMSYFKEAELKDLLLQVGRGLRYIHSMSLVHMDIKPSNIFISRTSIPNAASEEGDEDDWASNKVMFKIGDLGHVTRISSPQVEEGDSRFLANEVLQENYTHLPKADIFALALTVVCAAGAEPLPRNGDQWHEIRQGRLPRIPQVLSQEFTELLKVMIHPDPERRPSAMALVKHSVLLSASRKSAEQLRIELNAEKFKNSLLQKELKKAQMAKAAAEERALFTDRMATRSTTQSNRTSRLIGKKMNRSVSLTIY

| Structure (SMILES) | pIC50 [1] | pIC50 [2] | Plasma Protein binding (PPB) Mouse [3] [%] | pIC50 [4] | pIC50 [5] | pIC50 [6] | hERG Inhibition ([7]; test concentration 5 μM) [%] | hERG Inhibition ([7]; test concentration 20 μM) [%] | Efflux Ration [8] | Papp A to B [8] | Papp B to A [8] | pIC50 [9] |
| --- | --- | --- | --- | --- | --- | --- | --- | --- | --- | --- | --- | --- |
| C=CCn1c(=O)c2cnc(Nc3ccc(N4CCC(N(C)C)CC4)c(C)c3)nc2n1-c1ccc2c(n1)C(C)(O)C1(CC1)C2 (racemic) [Compound 15] | 6.12 | 6.00 to 7.00 | 93.51 | 6.00 to 7.00 | 6.00 to 7.00 | < 5.00 |  |  |  |  |  |  |
| C=CCn1c(=O)c2cnc(Nc3ccc(N4CCN(C)CC4)cc3)nc2n1-c1ccc2c(n1)C(O)(CC)C1(CC2)CC1 (racemic) [Compound 21] |  | 6.00 to 7.00 | 98.86 | 6.00 to 7.00 | 5.70 to 6.00 |  |  |  |  |  |  |  |
| [2H][C@]1(O)c2nc(-n3c4nc(Nc5ccc(N6CC7CC(C6)N7C(C)C)cc5)ncc4c(=O)n3CC=C)ccc2CCC12CC2 [Compound 39b] |  |  |  |  |  |  | 47.26 ± 2.27 | 67.24 ± 1.32 | 35.84 | 0.38 10^−6 cm/s | 13.62 10^−6 cm/s |  |
| C=CCn1c(=O)c2cnc(Nc3ccc(N4CCC(N(C)C)CC4)cc3)nc2n1-c1ccc2c(n1)[C@@](C)(O)C1(CC2)CC1 [Compound 65a] | 6.15 | 6.00 to 7.00 |  | 6.00 to 7.00 | 6.00 to 7.00 | < 5.00 |  |  | 9.55 | 0.96 10^−6 cm/s | 9.17 10^−6 cm/s | 8.00 to 8.30 |
| C=CCn1c(=O)c2cnc(Nc3ccc(N4CCN(C)CC4)cc3)nc2n1-c1ccc2c(n1)C(C)(O)C1(CC1)C2 (single isomer, unassigned) [Compound 3b] |  | 6.00 to 7.00 |  | 6.00 to 7.00 | 5.70 to 6.00 |  |  |  | 17.90 | 0.73 10^−6 cm/s | 13.07 10^−6 cm/s |  |
| C=CCn1c(=O)c2cnc(Nc3ccc(N4CC5CC(C4)N5C)cc3)nc2n1-c1ccc2c(n1)C(C)(O)C1(CC2)CC1 (stereo not drawn) [Compound 7] |  | 6.00 to 7.00 |  | 6.00 to 7.00 | 6.00 to 7.00 |  | 88.02 ± 3.87 | 95.13 ± 1.06 |  |  |  | ≥ 8.30 |
| C=CCn1c(=O)c2cnc(Nc3ccc(N4CCN(C)[C@@H](C)C4)cc3)nc2n1-c1ccc2c(n1)[C@@H](O)C1(CC2)CC1 (single isomer, unassigned) [Compound 56b] | 6.00 | 6.00 to 7.00 |  | 6.00 to 7.00 | 6.00 to 7.00 | < 5.00 |  |  |  |  |  |  |
| C=CCn1c(=O)c2cnc(Nc3ccc(N4CCC5(CCN(C)CC5)CC4)cc3)nc2n1-c1ccc2c(n1)[C@](C)(O)C1(CC2)CC1 (single isomer, unassigned) [Compound 44a] | 6.44 |  |  |  |  | 5.99 |  |  |  |  |  | ≥ 8.30 |
| C=CCn1c(=O)c2cnc(Nc3ccc(N4CCC(N(C)C)CC4)c(C)c3)nc2n1-c1ccc2c(n1)[C@@H](O)C1(CC2)CC1 (single isomer, unassigned) [Compound 41b] | 6.26 | 6.00 to 7.00 |  | 6.00 to 7.00 | 6.00 to 7.00 | < 5.00 |  |  |  |  |  | ≥ 8.30 |
| C=CCn1c(=O)c2cnc(Nc3ccc(N4CC5CC(C4)N5C(C)C)cc3)nc2n1-c1ccc2c(n1)[C@H](O)C1(CC2)CC1 [Compound 39b] | 6.14 | 6.00 to 7.00 |  | 6.00 to 7.00 | 6.00 to 7.00 | < 5.00 |  |  |  |  |  | 8.00 to 8.30 |
| C=CCn1c(=O)c2cnc(Nc3ccc(N4CCC5(CCN(C)CC5)CC4)c(C)c3)nc2n1-c1ccc2c(n1)[C@H](O)C1(CC2)CC1 (single isomer, unassigned) [Compound 61b] | 6.31 | 6.00 to 7.00 |  | 6.00 to 7.00 | 6.00 to 7.00 | 5.35 |  |  |  |  |  | 8.00 to 8.30 |
| C=CCn1c(=O)c2cnc(Nc3ccc(N4CCN(C(C)C)CC4)cc3)nc2n1-c1ccc2c(n1)[C@@H](O)C1(CC2)CC1 (single isomer, unassigned) [Compound 57b] | 6.04 | 6.00 to 7.00 |  | 6.00 to 7.00 | 6.00 to 7.00 | < 5.00 |  |  |  |  |  |  |
| C=CCn1c(=O)c2cnc(Nc3ccc(N4CCN(C)CC4)cc3)nc2n1-c1ccc2c(n1)C(C)(O)C1(CC2)CC1 (stereo not drawn) [Compound 6] |  | 6.00 to 7.00 | 97.2 | 6.00 to 7.00 | 5.70 to 6.00 |  |  |  |  |  |  | ≥ 8.30 |
| C=CCn1c(=O)c2cnc(Nc3ccc(N4CCC(N(C)C)CC4)c(C)c3)nc2n1-c1ccc2c(n1)[C@H](O)C1(CC2)CC1 (single isomer, unassigned) [Compound 48b] |  | 6.00 to 7.00 |  | 6.00 to 7.00 | 6.00 to 7.00 |  | 73.67 ± 0.93 | 90.92 ± 0.49 |  |  |  |  |
| [2H][C@@]1(O)c2nc(-n3c4nc(Nc5ccc(N6CCC(N(C)C)CC6)c(C)c5)ncc4c(=O)n3CC=C)ccc2CCC12CC2 [Compound 41b] |  |  | 96.26 |  |  |  |  |  |  |  |  |  |
| C=CCn1c(=O)c2cnc(Nc3ccc(N4CCC5(CCN(C)CC5)CC4)cc3)nc2n1-c1ccc2c(n1)C(C)(O)C1(CC1)C2 (stereo not drawn) [Compound 11] | 5.84 | 6.00 to 7.00 | 92.17 | 6.00 to 7.00 | 6.00 to 7.00 | < 5.00 |  |  | 21.59 | 0.41 10^−6 cm/s | 8.85 10^−6 cm/s |  |
| C=CCn1c(=O)c2cnc(Nc3ccc(N4CCN(C)CC4)cc3)nc2n1-c1ccc2c(n1)C(O)(C(F)(F)F)C1(CC1)C2 (stereo not drawn) [Compound 32] | 5.94 | 5.70 to 6.00 | 96.87 | 6.00 to 7.00 | 5.70 to 6.00 | < 5.00 |  |  |  |  |  | 8.00 to 8.30 |
| C=CCn1c(=O)c2cnc(Nc3ccc(N4C[C@H]5CN(C)C[C@H]5C4)cc3)nc2n1-c1ccc2c(n1)C(O)(C(F)(F)F)C1(CC1)C2 (mixture of isomers) [Compound 55] | 6.03 | 6.00 to 7.00 |  | 6.00 to 7.00 | 6.00 to 7.00 | < 5.00 |  |  |  |  |  |  |
